{"source": "paper PMC8909834", "about": "“An Orally Bioavailable and Highly Efficacious Inhibitor of CDK9/FLT3 for the Treatment of Acute Myeloid Leukemia” (Cancers, 2022)", "test_in_all_cases": "Kinase Hotspot radiolabel assay", "format_in_all_cases": "biochemical", "conditions_in_all_cases": "read-out: % Residual Activity", "key": {"Aurora A": {"target": "T1, Aurora A (Homo sapiens, UniProt O14965)", "T1 construct": "purchased Reaction Biology Corporation (Kinase HotSpot)", "T1 sequence (O14965 whole entry)": "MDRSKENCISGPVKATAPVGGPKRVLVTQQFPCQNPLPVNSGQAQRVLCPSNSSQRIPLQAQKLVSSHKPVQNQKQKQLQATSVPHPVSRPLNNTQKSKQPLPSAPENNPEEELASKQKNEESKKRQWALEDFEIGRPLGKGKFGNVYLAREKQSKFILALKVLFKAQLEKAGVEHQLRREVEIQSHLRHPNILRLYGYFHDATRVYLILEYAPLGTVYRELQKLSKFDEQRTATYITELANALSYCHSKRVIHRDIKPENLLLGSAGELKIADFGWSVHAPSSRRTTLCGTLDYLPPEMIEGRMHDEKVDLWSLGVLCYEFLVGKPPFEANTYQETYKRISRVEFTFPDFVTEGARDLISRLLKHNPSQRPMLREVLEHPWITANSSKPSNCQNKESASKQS", "in_short": "(§1)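 Data come from a 369-member kinase selectivity screen run as a Hotspot radiolabel assay. Compound concentration was 1 µM, and Ki was determined wherever inhibition topped 90%.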"}, "Aurora C": {"target": "T2, Aurora C (Homo sapiens, UniProt Q9UQB9)", "T2 construct": "purchased Reaction Biology Corporation (Kinase HotSpot)", "in_short": "as §1"}, "CAMKK2": {"target": "T3, CAMKK2 (Homo sapiens, UniProt Q96RR4)", "T3 construct": "purchased Reaction Biology Corporation (Kinase HotSpot)", "in_short": "as §1"}, "CDK4/cyclin D1": {"target": "T4, CDK4/cyclin D1 (Homo sapiens, UniProt P11802)", "T4 construct": "purchased Reaction Biology Corporation (Kinase HotSpot)", "in_short": "as §1"}, "CDK9/cyclin K": {"target": "T5, CDK9/cyclin K (Homo sapiens, UniProt P50750)", "T5 construct": "purchased Reaction Biology Corporation (Kinase HotSpot)", "in_short": "as §1"}, "CK1a1": {"target": "T6, CK1a1 (Homo sapiens, UniProt P48729)", "T6 construct": "purchased Reaction Biology Corporation (Kinase HotSpot)", "in_short": "as §1"}, "DDR2": {"target": "T7, DDR2 (Homo sapiens, UniProt Q16832)", "T7 construct": "purchased Reaction Biology Corporation (Kinase HotSpot)", "in_short": "as §1"}, "EPHB2": {"target": "T8, EPHB2 (Homo sapiens, UniProt P29323)", "T8 construct": "purchased Reaction Biology Corporation (Kinase HotSpot)", "in_short": "as §1"}, "ERK1": {"target": "T9, ERK1 (Homo sapiens, UniProt P27361)", "T9 construct": "purchased Reaction Biology Corporation (Kinase HotSpot)", "in_short": "as §1"}, "FGFR2": {"target": "T10, FGFR2 (Homo sapiens, UniProt P21802)", "T10 construct": "purchased Reaction Biology Corporation (Kinase HotSpot)", "in_short": "as §1"}, "GLK/MAP4K3": {"target": "T11, GLK/MAP4K3 (Homo sapiens, UniProt Q8IVH8)", "T11 construct": "purchased Reaction Biology Corporation (Kinase HotSpot)", "T11 sequence (Q8IVH8 whole entry)": "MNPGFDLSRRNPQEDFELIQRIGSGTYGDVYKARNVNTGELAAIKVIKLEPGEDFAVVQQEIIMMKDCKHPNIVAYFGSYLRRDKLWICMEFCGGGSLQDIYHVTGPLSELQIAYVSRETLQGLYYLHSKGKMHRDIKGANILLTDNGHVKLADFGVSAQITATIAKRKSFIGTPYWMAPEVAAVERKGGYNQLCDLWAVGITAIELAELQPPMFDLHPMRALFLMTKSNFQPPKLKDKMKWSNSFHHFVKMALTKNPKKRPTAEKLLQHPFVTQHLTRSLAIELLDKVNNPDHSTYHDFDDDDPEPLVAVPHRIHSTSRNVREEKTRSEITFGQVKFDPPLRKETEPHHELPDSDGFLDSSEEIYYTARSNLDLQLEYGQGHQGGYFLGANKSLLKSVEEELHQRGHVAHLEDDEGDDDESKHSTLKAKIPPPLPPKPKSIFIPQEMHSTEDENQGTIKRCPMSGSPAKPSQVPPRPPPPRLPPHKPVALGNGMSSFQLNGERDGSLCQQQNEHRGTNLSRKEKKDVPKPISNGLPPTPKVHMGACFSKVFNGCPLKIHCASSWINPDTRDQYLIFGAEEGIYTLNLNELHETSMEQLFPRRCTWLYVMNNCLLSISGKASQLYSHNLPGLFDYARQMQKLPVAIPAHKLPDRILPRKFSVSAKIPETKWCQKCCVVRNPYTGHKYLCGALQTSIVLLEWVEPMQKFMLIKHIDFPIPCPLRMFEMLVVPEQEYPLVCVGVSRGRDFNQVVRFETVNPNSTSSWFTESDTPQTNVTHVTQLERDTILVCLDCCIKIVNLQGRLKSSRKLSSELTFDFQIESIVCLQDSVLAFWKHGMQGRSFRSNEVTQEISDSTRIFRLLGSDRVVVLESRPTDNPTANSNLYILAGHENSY", "in_short": "as §1"}, "GRK3": {"target": "T12, GRK3 (Homo sapiens, UniProt P35626)", "T12 construct": "purchased Reaction Biology Corporation (Kinase HotSpot)", "in_short": "as §1"}, "HIPK4": {"target": "T13, HIPK4 (Homo sapiens, UniProt Q8NE63)", "T13 construct": "purchased Reaction Biology Corporation (Kinase HotSpot)", "in_short": "as §1"}, "JNK3": {"target": "T14, JNK3 (Homo sapiens, UniProt P53779)", "T14 construct": "purchased Reaction Biology Corporation (Kinase HotSpot)", "T14 sequence (P53779 whole entry)": "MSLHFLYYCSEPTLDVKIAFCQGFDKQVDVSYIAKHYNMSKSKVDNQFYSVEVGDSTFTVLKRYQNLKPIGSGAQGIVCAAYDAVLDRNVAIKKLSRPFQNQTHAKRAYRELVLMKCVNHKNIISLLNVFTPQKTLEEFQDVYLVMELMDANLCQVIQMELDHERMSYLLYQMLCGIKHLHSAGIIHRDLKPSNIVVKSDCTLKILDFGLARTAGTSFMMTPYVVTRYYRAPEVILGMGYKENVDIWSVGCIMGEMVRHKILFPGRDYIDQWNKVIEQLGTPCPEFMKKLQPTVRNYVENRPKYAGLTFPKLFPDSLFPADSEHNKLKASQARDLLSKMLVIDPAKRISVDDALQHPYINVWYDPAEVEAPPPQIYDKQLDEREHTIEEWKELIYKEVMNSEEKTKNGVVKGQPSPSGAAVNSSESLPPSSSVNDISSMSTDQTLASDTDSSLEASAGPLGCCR", "in_short": "as §1"}, "LATS1": {"target": "T15, LATS1 (Homo sapiens, UniProt O95835)", "T15 construct": "purchased Reaction Biology Corporation (Kinase HotSpot)", "T15 sequence (O95835 whole entry)": "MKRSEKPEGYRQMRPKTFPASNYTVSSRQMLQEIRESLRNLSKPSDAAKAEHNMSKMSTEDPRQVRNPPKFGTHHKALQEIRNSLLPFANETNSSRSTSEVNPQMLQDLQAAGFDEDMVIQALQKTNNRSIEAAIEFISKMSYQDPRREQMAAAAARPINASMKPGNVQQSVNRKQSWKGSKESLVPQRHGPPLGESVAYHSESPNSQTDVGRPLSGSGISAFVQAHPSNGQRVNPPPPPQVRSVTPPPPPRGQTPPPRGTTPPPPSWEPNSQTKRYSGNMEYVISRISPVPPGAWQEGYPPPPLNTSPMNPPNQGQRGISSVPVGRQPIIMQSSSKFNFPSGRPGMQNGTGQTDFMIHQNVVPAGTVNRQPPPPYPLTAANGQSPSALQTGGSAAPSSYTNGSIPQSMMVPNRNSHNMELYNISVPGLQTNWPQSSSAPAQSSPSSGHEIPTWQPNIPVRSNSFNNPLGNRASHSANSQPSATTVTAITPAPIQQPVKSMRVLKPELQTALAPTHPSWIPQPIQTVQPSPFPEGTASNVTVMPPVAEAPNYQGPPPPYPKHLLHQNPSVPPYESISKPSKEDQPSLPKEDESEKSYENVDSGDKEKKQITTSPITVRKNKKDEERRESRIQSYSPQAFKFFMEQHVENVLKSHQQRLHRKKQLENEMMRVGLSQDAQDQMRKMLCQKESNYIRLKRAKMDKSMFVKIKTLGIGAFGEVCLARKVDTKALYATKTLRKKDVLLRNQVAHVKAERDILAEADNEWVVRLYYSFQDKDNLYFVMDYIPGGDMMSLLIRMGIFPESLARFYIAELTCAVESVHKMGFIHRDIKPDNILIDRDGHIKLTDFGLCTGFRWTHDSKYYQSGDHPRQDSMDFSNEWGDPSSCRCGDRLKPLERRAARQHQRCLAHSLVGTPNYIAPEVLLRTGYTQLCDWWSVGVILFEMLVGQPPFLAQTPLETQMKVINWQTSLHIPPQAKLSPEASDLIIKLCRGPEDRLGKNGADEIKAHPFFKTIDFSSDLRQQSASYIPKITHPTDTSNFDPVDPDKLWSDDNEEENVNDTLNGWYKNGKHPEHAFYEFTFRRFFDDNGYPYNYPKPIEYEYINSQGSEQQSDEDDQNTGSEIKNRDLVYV", "in_short": "as §1"}, "MAPKAPK3": {"target": "T16, MAPKAPK3 (Homo sapiens, UniProt Q16644)", "T16 construct": "purchased Reaction Biology Corporation (Kinase HotSpot)", "T16 sequence (Q16644 whole entry)": "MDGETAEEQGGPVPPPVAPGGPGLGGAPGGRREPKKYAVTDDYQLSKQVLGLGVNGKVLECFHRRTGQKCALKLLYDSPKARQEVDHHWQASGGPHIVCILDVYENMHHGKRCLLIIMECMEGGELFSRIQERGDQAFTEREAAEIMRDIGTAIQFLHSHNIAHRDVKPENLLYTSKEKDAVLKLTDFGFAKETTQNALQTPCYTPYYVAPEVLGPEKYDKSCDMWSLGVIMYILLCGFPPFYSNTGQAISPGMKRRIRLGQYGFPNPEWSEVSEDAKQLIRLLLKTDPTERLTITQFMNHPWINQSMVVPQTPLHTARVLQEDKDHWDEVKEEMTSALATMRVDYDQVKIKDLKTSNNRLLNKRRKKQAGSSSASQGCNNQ", "in_short": "as §1"}, "MAPKAPK5/PRAK": {"target": "T17, MAPKAPK5/PRAK (Homo sapiens, UniProt Q8IW41)", "T17 construct": "purchased Reaction Biology Corporation (Kinase HotSpot)", "in_short": "as §1"}, "NEK8": {"target": "T18, NEK8 (Homo sapiens, UniProt Q86SG6)", "T18 construct": "purchased Reaction Biology Corporation (Kinase HotSpot)", "in_short": "as §1"}, "P38a/MAPK14": {"target": "T19, P38a/MAPK14 (Homo sapiens, UniProt Q16539)", "T19 construct": "purchased Reaction Biology Corporation (Kinase HotSpot)", "in_short": "as §1"}, "PAK6": {"target": "T20, PAK6 (Homo sapiens, UniProt Q9NQU5)", "T20 construct": "purchased Reaction Biology Corporation (Kinase HotSpot)", "in_short": "as §1"}, "PKG2/PRKG2": {"target": "T21, PKG2/PRKG2 (Homo sapiens, UniProt Q13237)", "T21 construct": "purchased Reaction Biology Corporation (Kinase HotSpot)", "T21 sequence (Q13237 whole entry)": "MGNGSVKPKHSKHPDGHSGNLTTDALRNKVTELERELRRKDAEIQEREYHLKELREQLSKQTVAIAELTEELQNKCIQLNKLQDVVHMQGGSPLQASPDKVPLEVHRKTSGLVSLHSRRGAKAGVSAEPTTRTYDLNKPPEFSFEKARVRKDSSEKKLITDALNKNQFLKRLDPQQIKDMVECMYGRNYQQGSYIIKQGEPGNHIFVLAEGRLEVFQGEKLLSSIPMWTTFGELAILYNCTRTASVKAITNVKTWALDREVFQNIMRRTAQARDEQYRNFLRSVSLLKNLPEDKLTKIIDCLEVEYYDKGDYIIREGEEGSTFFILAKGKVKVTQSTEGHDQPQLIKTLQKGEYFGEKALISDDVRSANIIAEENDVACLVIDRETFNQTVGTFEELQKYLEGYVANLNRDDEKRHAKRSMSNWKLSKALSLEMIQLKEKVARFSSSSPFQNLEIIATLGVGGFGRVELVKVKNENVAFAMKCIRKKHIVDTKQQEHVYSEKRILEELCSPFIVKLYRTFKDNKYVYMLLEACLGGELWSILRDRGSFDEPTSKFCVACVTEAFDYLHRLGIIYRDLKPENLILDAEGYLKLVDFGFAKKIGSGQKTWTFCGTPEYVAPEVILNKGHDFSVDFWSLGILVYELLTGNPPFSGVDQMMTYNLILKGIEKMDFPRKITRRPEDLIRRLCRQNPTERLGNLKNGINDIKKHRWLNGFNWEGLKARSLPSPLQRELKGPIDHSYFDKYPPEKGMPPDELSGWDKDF", "in_short": "as §1"}, "PLK1": {"target": "T22, PLK1 (Homo sapiens, UniProt P53350)", "T22 construct": "purchased Reaction Biology Corporation (Kinase HotSpot)", "in_short": "as §1"}, "SBK1": {"target": "T23, SBK1 (Homo sapiens, UniProt Q52WX2)", "T23 construct": "purchased Reaction Biology Corporation (Kinase HotSpot)", "in_short": "as §1"}, "SNRK": {"target": "T24, SNRK (Homo sapiens, UniProt Q9NRH2)", "T24 construct": "purchased Reaction Biology Corporation (Kinase HotSpot)", "in_short": "as §1"}, "TAK1": {"target": "T25, TAK1 (Homo sapiens, UniProt O43318)", "T25 construct": "purchased Reaction Biology Corporation (Kinase HotSpot)", "in_short": "as §1"}, "TESK2": {"target": "T26, TESK2 (Homo sapiens, UniProt Q96S53)", "T26 construct": "purchased Reaction Biology Corporation (Kinase HotSpot)", "T26 sequence (Q96S53 whole entry)": "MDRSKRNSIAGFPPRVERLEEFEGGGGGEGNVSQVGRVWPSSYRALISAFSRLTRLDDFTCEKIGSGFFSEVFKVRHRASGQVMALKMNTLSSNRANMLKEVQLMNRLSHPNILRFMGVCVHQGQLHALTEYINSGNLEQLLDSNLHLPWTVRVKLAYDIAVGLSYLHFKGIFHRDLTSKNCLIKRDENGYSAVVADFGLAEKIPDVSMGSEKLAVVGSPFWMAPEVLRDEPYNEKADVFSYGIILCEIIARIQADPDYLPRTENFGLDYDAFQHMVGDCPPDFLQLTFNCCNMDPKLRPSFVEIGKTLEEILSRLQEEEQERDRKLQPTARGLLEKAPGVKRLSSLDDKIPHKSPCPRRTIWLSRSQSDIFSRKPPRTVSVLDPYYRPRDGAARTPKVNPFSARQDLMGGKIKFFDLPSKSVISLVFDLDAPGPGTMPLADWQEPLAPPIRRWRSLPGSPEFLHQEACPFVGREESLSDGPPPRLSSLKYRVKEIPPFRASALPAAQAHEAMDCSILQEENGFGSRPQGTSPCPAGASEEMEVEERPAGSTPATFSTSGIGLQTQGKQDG", "in_short": "as §1"}, "TSSK2": {"target": "T27, TSSK2 (Homo sapiens, UniProt Q96PF2)", "T27 construct": "purchased Reaction Biology Corporation (Kinase HotSpot)", "T27 sequence (Q96PF2 whole entry)": "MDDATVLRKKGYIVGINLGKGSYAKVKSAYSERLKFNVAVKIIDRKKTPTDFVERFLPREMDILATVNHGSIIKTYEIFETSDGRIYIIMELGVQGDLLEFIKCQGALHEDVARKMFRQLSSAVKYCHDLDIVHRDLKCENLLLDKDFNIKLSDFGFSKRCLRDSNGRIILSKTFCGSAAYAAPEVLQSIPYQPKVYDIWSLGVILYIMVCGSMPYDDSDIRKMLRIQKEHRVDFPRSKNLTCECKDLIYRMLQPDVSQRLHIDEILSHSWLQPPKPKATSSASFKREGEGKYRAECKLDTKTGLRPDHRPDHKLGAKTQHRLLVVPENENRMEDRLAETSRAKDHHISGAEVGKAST", "in_short": "as §1"}, "VRK1": {"target": "T28, VRK1 (Homo sapiens, UniProt Q99986)", "T28 construct": "purchased Reaction Biology Corporation (Kinase HotSpot)", "in_short": "as §1"}, "WNK2": {"target": "T29, WNK2 (Homo sapiens, UniProt Q9Y3S1)", "T29 construct": "purchased Reaction Biology Corporation (Kinase HotSpot)", "in_short": "as §1"}, "ZIPK/DAPK3": {"target": "T30, ZIPK/DAPK3 (Homo sapiens, UniProt O43293)", "T30 construct": "purchased Reaction Biology Corporation (Kinase HotSpot)", "in_short": "as §1"}}}
{"compound": "Cc1cnc(N[C@H]2CC[C@H](N)CC2)nc1-c1cnc2ccc(-c3ccccc3)cn12", "note": "[CDDD11-8]", "values": [{"measurement": "remaining activity at 1 µM", "setting": "Aurora A", "value": 79.3, "unit": "%"}, {"measurement": "remaining activity at 1 µM", "setting": "Aurora C", "value": 82.1, "unit": "%"}, {"measurement": "remaining activity at 1 µM", "setting": "CAMKK2", "value": 47.7, "unit": "%"}, {"measurement": "remaining activity at 1 µM", "setting": "CDK4/cyclin D1", "value": 89.3, "unit": "%"}, {"measurement": "remaining activity at 1 µM", "setting": "CDK9/cyclin K", "value": 6.4, "unit": "%"}, {"measurement": "remaining activity at 1 µM", "setting": "CK1a1", "value": 102, "unit": "%"}, {"measurement": "remaining activity at 1 µM", "setting": "DDR2", "value": 73.5, "unit": "%"}, {"measurement": "remaining activity at 1 µM", "setting": "EPHB2", "value": 80.2, "unit": "%"}, {"measurement": "remaining activity at 1 µM", "setting": "ERK1", "value": 97.3, "unit": "%"}, {"measurement": "remaining activity at 1 µM", "setting": "FGFR2", "value": 72.5, "unit": "%"}, {"measurement": "remaining activity at 1 µM", "setting": "GLK/MAP4K3", "value": 9.75, "unit": "%"}, {"measurement": "remaining activity at 1 µM", "setting": "GRK3", "value": 91.9, "unit": "%"}, {"measurement": "remaining activity at 1 µM", "setting": "HIPK4", "value": 52.4, "unit": "%"}, {"measurement": "remaining activity at 1 µM", "setting": "JNK3", "value": 81.3, "unit": "%"}, {"measurement": "remaining activity at 1 µM", "setting": "LATS1", "value": 57.4, "unit": "%"}, {"measurement": "remaining activity at 1 µM", "setting": "MAPKAPK3", "value": 91.8, "unit": "%"}, {"measurement": "remaining activity at 1 µM", "setting": "MAPKAPK5/PRAK", "value": 99.4, "unit": "%"}, {"measurement": "remaining activity at 1 µM", "setting": "NEK8", "value": 72.8, "unit": "%"}, {"measurement": "remaining activity at 1 µM", "setting": "P38a/MAPK14", "value": 106, "unit": "%"}, {"measurement": "remaining activity at 1 µM", "setting": "PAK6", "value": 96.6, "unit": "%"}, {"measurement": "remaining activity at 1 µM", "setting": "PKG2/PRKG2", "value": 87, "unit": "%"}, {"measurement": "remaining activity at 1 µM", "setting": "PLK1", "value": 97.3, "unit": "%"}, {"measurement": "remaining activity at 1 µM", "setting": "SBK1", "value": 102, "unit": "%"}, {"measurement": "remaining activity at 1 µM", "setting": "SNRK", "value": 100, "unit": "%"}, {"measurement": "remaining activity at 1 µM", "setting": "TAK1", "value": 77.8, "unit": "%"}, {"measurement": "remaining activity at 1 µM", "setting": "TESK2", "value": 100, "unit": "%"}, {"measurement": "remaining activity at 1 µM", "setting": "TSSK2", "value": 93.8, "unit": "%"}, {"measurement": "remaining activity at 1 µM", "setting": "VRK1", "value": 42.4, "unit": "%"}, {"measurement": "remaining activity at 1 µM", "setting": "WNK2", "value": 94.5, "unit": "%"}, {"measurement": "remaining activity at 1 µM", "setting": "ZIPK/DAPK3", "value": 102, "unit": "%"}]}
